Results as given in PubChem BioAssay (NCI).
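96-well plates; 48 h exposure; 5 concentrations. Endpoints by linear interpolation between flanking doses. Not reached: highest tested concentration assigned. GI50 marks 50% less growth. TGI: concentration producing complete growth inhibition.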

tested on: HCT-15 colon; experiment: NCI-60 cell line screen, 48 h

How did the GI50 turn out when `Cc1[nH]n(-c2cccc(Cl)c2)c(=O)c1/C=C1\C=Nc2ccc(Br)cc21` was run?
Its GI50 is 5.25 µM.

What about the TGI of the same compound?
Its TGI is > 100 µM.

`COC(COC(=O)N1CCN(C=O)CC1)C1=C(N2CC2)C(=O)C(C)=C(N2CC2)C1=O` (stereo unspecified) was tested. Which TGI did it give?
Its TGI is 8.1 µM.

`O=C(CCCN1CC=C(n2c(=O)[nH]c3ccccc32)CC1)c1ccc(F)cc1` was tested. Which GI50 did it give?
The GI50 was 37.4 µM.

What about the TGI of the same compound?
The TGI was > 100 µM.

tested on: SK-MEL-5 melanoma; experiment: NCI-60 cell line screen, 48 h

Which results are given for `CCN(CC)CCOc1ccc(/C(=C(\C)c2ccc(F)c(OC)c2)c2ccc(Cl)cc2)cc1`?
GI50: 2.81 µM; TGI: 5.21 µM

With `Cc1[nH]n(-c2cccc(Cl)c2)c(=O)c1/C=C1\C=Nc2ccc(Br)cc21` as the compound, how does the GI50 read?
Its GI50 is 9.48 µM.

And the TGI?
Its TGI is > 100 µM.

For `COC(COC(=O)N1CCN(C=O)CC1)C1=C(N2CC2)C(=O)C(C)=C(N2CC2)C1=O` (stereo unspecified), which TGI is on record?
Its TGI is 0.7 µM.

Which GI50 does the source give for `O=C(CCCN1CC=C(n2c(=O)[nH]c3ccccc32)CC1)c1ccc(F)cc1` here?
The GI50 was 14.9 µM.

And the TGI?
The TGI was 28.6 µM.

tested on: IGROV1 ovarian; experiment: NCI-60 cell line screen, 48 h

Which results are given for `CCN(CC)CCOc1ccc(/C(=C(\C)c2ccc(F)c(OC)c2)c2ccc(Cl)cc2)cc1`?
GI50: 2.45 µM; TGI: 5.4 µM

How did the GI50 turn out when `Cc1[nH]n(-c2cccc(Cl)c2)c(=O)c1/C=C1\C=Nc2ccc(Br)cc21` was run?
The GI50 was 3.04 µM.

And the TGI?
The TGI was 9.34 µM.

For `COC(COC(=O)N1CCN(C=O)CC1)C1=C(N2CC2)C(=O)C(C)=C(N2CC2)C1=O` (stereo unspecified), which TGI is on record?
The TGI was 1.38 µM.

Which results are given for `O=C(CCCN1CC=C(n2c(=O)[nH]c3ccccc32)CC1)c1ccc(F)cc1`?
GI50: > 100 µM; TGI: > 100 µM

tested on: NCI-H226 lung; experiment: NCI-60 cell line screen, 48 h

How did the GI50 turn out when `CCN(CC)CCOc1ccc(/C(=C(\C)c2ccc(F)c(OC)c2)c2ccc(Cl)cc2)cc1` was run?
Its GI50 is 2.53 µM.

And the TGI?
The TGI was 5.14 µM.

How did the GI50 turn out when `Cc1[nH]n(-c2cccc(Cl)c2)c(=O)c1/C=C1\C=Nc2ccc(Br)cc21` was run?
Its GI50 is 5.81 µM.

What about the TGI of the same compound?
The TGI was 28.5 µM.

With `COC(COC(=O)N1CCN(C=O)CC1)C1=C(N2CC2)C(=O)C(C)=C(N2CC2)C1=O` (stereo unspecified) as the compound, how does the TGI read?
The TGI was 3.05 µM.

`O=C(CCCN1CC=C(n2c(=O)[nH]c3ccccc32)CC1)c1ccc(F)cc1` was tested. Which GI50 did it give?
The GI50 was 25.5 µM.

And the TGI?
The TGI was > 100 µM.

tested on: ACHN renal; experiment: NCI-60 cell line screen, 48 h

Which GI50 does the source give for `CCN(CC)CCOc1ccc(/C(=C(\C)c2ccc(F)c(OC)c2)c2ccc(Cl)cc2)cc1` here?
Its GI50 is 2.7 µM.

What about the TGI of the same compound?
The TGI was 5.31 µM.

What does the source list for `Cc1[nH]n(-c2cccc(Cl)c2)c(=O)c1/C=C1\C=Nc2ccc(Br)cc21`?
GI50: 2.46 µM; TGI: 5.9 µM

With `COC(COC(=O)N1CCN(C=O)CC1)C1=C(N2CC2)C(=O)C(C)=C(N2CC2)C1=O` (stereo unspecified) as the compound, how does the TGI read?
Its TGI is 0.424 µM.

For `O=C(CCCN1CC=C(n2c(=O)[nH]c3ccccc32)CC1)c1ccc(F)cc1`, which GI50 is on record?
Its GI50 is 45.6 µM.

What about the TGI of the same compound?
Its TGI is > 100 µM.

tested on: MOLT-4 leukemia; experiment: NCI-60 cell line screen, 48 h

`CCN(CC)CCOc1ccc(/C(=C(\C)c2ccc(F)c(OC)c2)c2ccc(Cl)cc2)cc1` was tested. Which GI50 did it give?
Its GI50 is 2.49 µM.

What about the TGI of the same compound?
Its TGI is 6.86 µM.

With `Cc1[nH]n(-c2cccc(Cl)c2)c(=O)c1/C=C1\C=Nc2ccc(Br)cc21` as the compound, how does the GI50 read?
Its GI50 is 3.12 µM.

What about the TGI of the same compound?
The TGI was 10.9 µM.

For `COC(COC(=O)N1CCN(C=O)CC1)C1=C(N2CC2)C(=O)C(C)=C(N2CC2)C1=O` (stereo unspecified), which TGI is on record?
The TGI was 14.1 µM.

`O=C(CCCN1CC=C(n2c(=O)[nH]c3ccccc32)CC1)c1ccc(F)cc1` was tested. Which GI50 did it give?
The GI50 was 30.5 µM.

And the TGI?
Its TGI is 91.8 µM.

tested on: SNB-75 CNS; experiment: NCI-60 cell line screen, 48 h

How did the GI50 turn out when `CCN(CC)CCOc1ccc(/C(=C(\C)c2ccc(F)c(OC)c2)c2ccc(Cl)cc2)cc1` was run?
The GI50 was 2.02 µM.

What about the TGI of the same compound?
Its TGI is 4.84 µM.

With `Cc1[nH]n(-c2cccc(Cl)c2)c(=O)c1/C=C1\C=Nc2ccc(Br)cc21` as the compound, how does the GI50 read?
The GI50 was 1.25 µM.

What about the TGI of the same compound?
Its TGI is 3.37 µM.

tested on: CCRF-CEM leukemia; experiment: NCI-60 cell line screen, 48 h

Which results are given for `CCN(CC)CCOc1ccc(/C(=C(\C)c2ccc(F)c(OC)c2)c2ccc(Cl)cc2)cc1`?
GI50: 2.96 µM; TGI: 8.55 µM

Which results are given for `Cc1[nH]n(-c2cccc(Cl)c2)c(=O)c1/C=C1\C=Nc2ccc(Br)cc21`?
GI50: 2.95 µM; TGI: 9.84 µM

`COC(COC(=O)N1CCN(C=O)CC1)C1=C(N2CC2)C(=O)C(C)=C(N2CC2)C1=O` (stereo unspecified) was tested. Which TGI did it give?
Its TGI is 4.77 µM.

`O=C(CCCN1CC=C(n2c(=O)[nH]c3ccccc32)CC1)c1ccc(F)cc1` was tested. Which GI50 did it give?
The GI50 was 35.5 µM.

What about the TGI of the same compound?
The TGI was > 100 µM.

tested on: HOP-62 NSCLC; experiment: NCI-60 cell line screen, 48 h

How did the GI50 turn out when `CCN(CC)CCOc1ccc(/C(=C(\C)c2ccc(F)c(OC)c2)c2ccc(Cl)cc2)cc1` was run?
Its GI50 is 2.51 µM.

And the TGI?
Its TGI is 4.99 µM.

With `Cc1[nH]n(-c2cccc(Cl)c2)c(=O)c1/C=C1\C=Nc2ccc(Br)cc21` as the compound, how does the GI50 read?
Its GI50 is 2.33 µM.

What about the TGI of the same compound?
The TGI was 5.14 µM.

For `COC(COC(=O)N1CCN(C=O)CC1)C1=C(N2CC2)C(=O)C(C)=C(N2CC2)C1=O` (stereo unspecified), which TGI is on record?
Its TGI is 6.57 µM.

For `O=C(CCCN1CC=C(n2c(=O)[nH]c3ccccc32)CC1)c1ccc(F)cc1`, which GI50 is on record?
Its GI50 is 57.6 µM.

And the TGI?
The TGI was > 100 µM.

tested on: U251 CNS; experiment: NCI-60 cell line screen, 48 h

With `CCN(CC)CCOc1ccc(/C(=C(\C)c2ccc(F)c(OC)c2)c2ccc(Cl)cc2)cc1` as the compound, how does the GI50 read?
The GI50 was 2.23 µM.

And the TGI?
Its TGI is 4.74 µM.

For `Cc1[nH]n(-c2cccc(Cl)c2)c(=O)c1/C=C1\C=Nc2ccc(Br)cc21`, which GI50 is on record?
Its GI50 is 2.83 µM.

And the TGI?
The TGI was 8.65 µM.

`COC(COC(=O)N1CCN(C=O)CC1)C1=C(N2CC2)C(=O)C(C)=C(N2CC2)C1=O` (stereo unspecified) was tested. Which TGI did it give?
The TGI was 2.71 µM.

tested on: T-47D breast; experiment: NCI-60 cell line screen, 48 h

Which results are given for `CCN(CC)CCOc1ccc(/C(=C(\C)c2ccc(F)c(OC)c2)c2ccc(Cl)cc2)cc1`?
GI50: 2.41 µM; TGI: 5.86 µM

How did the GI50 turn out when `Cc1[nH]n(-c2cccc(Cl)c2)c(=O)c1/C=C1\C=Nc2ccc(Br)cc21` was run?
The GI50 was 2.06 µM.

And the TGI?
The TGI was 6.26 µM.

`COC(COC(=O)N1CCN(C=O)CC1)C1=C(N2CC2)C(=O)C(C)=C(N2CC2)C1=O` (stereo unspecified) was tested. Which TGI did it give?
The TGI was 22.4 µM.

For `O=C(CCCN1CC=C(n2c(=O)[nH]c3ccccc32)CC1)c1ccc(F)cc1`, which GI50 is on record?
The GI50 was 19.7 µM.

And the TGI?
The TGI was 73.6 µM.

tested on: SNB-19 CNS; experiment: NCI-60 cell line screen, 48 h

How did the GI50 turn out when `CCN(CC)CCOc1ccc(/C(=C(\C)c2ccc(F)c(OC)c2)c2ccc(Cl)cc2)cc1` was run?
Its GI50 is 2.83 µM.

And the TGI?
Its TGI is 5.17 µM.

How did the GI50 turn out when `Cc1[nH]n(-c2cccc(Cl)c2)c(=O)c1/C=C1\C=Nc2ccc(Br)cc21` was run?
The GI50 was 5.79 µM.

And the TGI?
The TGI was 25.7 µM.

How did the TGI turn out when `COC(COC(=O)N1CCN(C=O)CC1)C1=C(N2CC2)C(=O)C(C)=C(N2CC2)C1=O` (stereo unspecified) was run?
The TGI was 13.4 µM.

tested on: A498 renal; experiment: NCI-60 cell line screen, 48 h

For `Cc1[nH]n(-c2cccc(Cl)c2)c(=O)c1/C=C1\C=Nc2ccc(Br)cc21`, which GI50 is on record?
Its GI50 is 2.08 µM.

What about the TGI of the same compound?
The TGI was 5.18 µM.

For `COC(COC(=O)N1CCN(C=O)CC1)C1=C(N2CC2)C(=O)C(C)=C(N2CC2)C1=O` (stereo unspecified), which TGI is on record?
The TGI was 4.02 µM.

tested on: M14 melanoma; experiment: NCI-60 cell line screen, 48 h

With `CCN(CC)CCOc1ccc(/C(=C(\C)c2ccc(F)c(OC)c2)c2ccc(Cl)cc2)cc1` as the compound, how does the GI50 read?
Its GI50 is 2.81 µM.

And the TGI?
Its TGI is 5.64 µM.

For `Cc1[nH]n(-c2cccc(Cl)c2)c(=O)c1/C=C1\C=Nc2ccc(Br)cc21`, which GI50 is on record?
The GI50 was 14.1 µM.

And the TGI?
Its TGI is > 100 µM.

Which TGI does the source give for `COC(COC(=O)N1CCN(C=O)CC1)C1=C(N2CC2)C(=O)C(C)=C(N2CC2)C1=O` (stereo unspecified) here?
The TGI was 1.34 µM.

How did the GI50 turn out when `O=C(CCCN1CC=C(n2c(=O)[nH]c3ccccc32)CC1)c1ccc(F)cc1` was run?
The GI50 was 23 µM.

And the TGI?
Its TGI is 65.5 µM.

tested on: HS 578T breast; experiment: NCI-60 cell line screen, 48 h

Which GI50 does the source give for `CCN(CC)CCOc1ccc(/C(=C(\C)c2ccc(F)c(OC)c2)c2ccc(Cl)cc2)cc1` here?
The GI50 was 2.42 µM.

What about the TGI of the same compound?
Its TGI is 5.84 µM.

How did the GI50 turn out when `Cc1[nH]n(-c2cccc(Cl)c2)c(=O)c1/C=C1\C=Nc2ccc(Br)cc21` was run?
Its GI50 is 2.46 µM.

And the TGI?
The TGI was 8.04 µM.

With `COC(COC(=O)N1CCN(C=O)CC1)C1=C(N2CC2)C(=O)C(C)=C(N2CC2)C1=O` (stereo unspecified) as the compound, how does the TGI read?
Its TGI is 5.17 µM.

What does the source list for `O=C(CCCN1CC=C(n2c(=O)[nH]c3ccccc32)CC1)c1ccc(F)cc1`?
GI50: 24 µM; TGI: 99.8 µM

tested on: SF-295 CNS; experiment: NCI-60 cell line screen, 48 h

What does the source list for `CCN(CC)CCOc1ccc(/C(=C(\C)c2ccc(F)c(OC)c2)c2ccc(Cl)cc2)cc1`?
GI50: 2.61 µM; TGI: 4.98 µM

Which results are given for `Cc1[nH]n(-c2cccc(Cl)c2)c(=O)c1/C=C1\C=Nc2ccc(Br)cc21`?
GI50: 3.6 µM; TGI: 14.2 µM
